Data as given in patent publication US6867015B1, “Rapid microbiological test for the detection of antibacterial compounds” (Gist-Brocades B.V., priority 1995, dated 2005).

Experiments:
Assay type in all cases: cell-based
[1] = test system: Bacillus stearothermophilus var. calidolactis C953 spores; assay: Test type A: agar test tubes with bromocresolpurple and nutrient tablet, milk sample; conditions: fresh cow's milk, 64° C.
Protocol: Test tubes of type A contained an agar medium prepared as follows: A solution was made of 12 g agar, 9 g sodium chloride and 50 ml of a 0.1 M triethanolamine buffer solution (pH=8.0) in 1000 ml distilled water. An amount of a solution of bromocresolpurple to give a final concentration of 20 mg per 1000 ml was also added. The final solution was sterilized for 20 minutes at 121° C. and cooled to about 60° C. To this solution different amounts of a suspension of Bacillus stearothermophilus var. calidolactis […] spores in distilled water were added to give final concentrations between 10^5 and 10^10 spores per ml. Sterile tubes with a diameter of about 9 mm were filled with 0.3 ml of the agar solution under aseptic conditions and immediately sealed, e.g. with aluminium foil. The agar solution in the test tubes was allowed to solidify in the test tubes while the test tubes were held in an upright position. The tubes were stored at a temperature between 5° C. and 15° C. A mixture was made of 100 g dextrose, 160 g Avicel PH101, 50 g tryptose, 14 g yeast extract and 15 g precirol. This mixture was sufficient to prepare about 18000 tablets with a diameter of approximately 3 mm and a thickness of approximately 1.9 mm. […] The time at which the colour of the agar medium became yellow was determined. […]

[2] = test system: Streptococcus thermophilus T101 (DSM 4022); assay: Test type D: detection of antibiotics in milk without agar, bromocresolpurple; conditions: test duration of 80 minutes
Protocol: In this experiment Streptococcus thermophilus […] (DSM 4022) was sed for the determination of antibiotics in milk. Streptococcus thermophilus […] was grown using methods known per se. An amount of a solution of bromocresolpurple to give a final concentration of […] was added to fresh cow's milk. To part of the fresh cow's milk also an amount of penicillin G of 4 ppb added. The control sample contained no penicillin G. To the milk samples different amounts of Streptococcus thermophilus […] were added to give final concentrations between 10^7 and 10^9 CFU per ml. Immediately after preparation of the samples sterile tubes with a diameter of about 9 mm were filled with 0.3 ml of each milk sample (duplo). The tubes were immediately placed in a waterbath kept at 42° C. Observations were made after 30 minutes to 2 hours and 30 minutes. The time at which the colour of the agar medium became yellow was determined. As is shown in table 3, the test duration correlated with the amount of cells added to the milk without influencing the sensitivity of the test in a negative way.

[3] = test system: Bacillus stearothermophilus var. calidolactis C953 spores; assay: Test type B: agar test tubes with Brilliant Black and Toluidine Blue, milk sample
Protocol: Test tubes of type B contained an agar medium prepared as follows: A solution was made of 10 g agar, 9 g sodium chloride, 2 g glucose, 2 g peptone, 2 g tryptone, 4 g yeast extract and 50 ml of a 0.1 M triethanolamine buffer solution (pH=8.0) in 1000 ml distilled water. The final solution was sterilized for 20 minutes at 121° C. and cooled to about 60° C. An amount of a solution of Brilliant Black to give a final concentration of 80 mg per 1000 ml and an amount of a solution of Toluidine Blue to give a final concentration of 3 mg per 1000 ml were also added. To this solution different amounts of a suspension of Bacillus stearothermophilus var. caildolactis C953 spores In distilled water were added to give final concentrations between 10^8 and 10^10 spores per ml. Sterile tubes with a diameter of about 9 mm were filled with 0.3 ml of the agar solution under aseptic conditions and Immediately sealed e.g. with an aluminum foil. The agar solution In the test tubes was allowed to solidity in the test tubes while the test tubes were held in an upright position. The tubes were stored at a temperature between 5° C. and 15° C. An amount of penicillin G of 0.003 I.U. per ml was added to fresh cow's milk. The control sample contained no penicillin G. Two of each of the test tubes of type B with concentrations of Bacillus stearothermophilus var. calidolactis spores as described in Example II were opened by removing the seal. Then 0.1 ml of each of the two milk samples was added to each of the test tubes and the test tubes were immediately placed in a waterbath kept at 64° C. Observations were made after 30 minutes to 3 hours. The time at which the colour of the agar medium became yellow was determined. As is shown in Table 1, the test duration correlated with the amount of spores added to the agar medium without influencing the sensitivity of the test in a negative way.

[4] = test system: Bacillus stearothermophilus var. calidolactis spores C953; assay: Test type C: microtiterplates with agar medium containing trimethoprim, milk sample
Protocol: For the preparation of the test plates (test type C) the procedure described in Example I was followed except that the nutrients described in Example III (dextrose, tryptose and yeast extract) were not added separately but were added to the initial agar medium in the same concentration as described in Example I. Also together with the buffer solution an amount of trimethoprim solution was added to give a final concentration of 60 μg per litre. To the wells of sterile microtiterplates 20 μl of the agar solution was added under asceptic conditions. The plates were immediately sealed with aluminium foil. The plates were stored at a temperature between 5° C. and 15° C. An amount of penicillin G of 3 ppb was added to fresh cow's milk. […] The control sample contained no penicillin G or sulphadiazine. The microtiterplates were opened by removing the seal. Then 20 μl of each of the three milk samples was added to each of the test plates (duplo) containing different concentrations of Bacillus stearothermophilus var. calidolactis spores […]. The plates were immediately placed in a waterbath kept at 64° C. Observations were made after 30 minutes to 150 minutes. The time at which the colour of the agar medium became yellow was determined. As is shown in table 2, the test duration correlated with the amount of spores added to the agar medium without influencing the sensitivity of the test in a negative way.

Compound | detectable amount of antibacterial compound (agar medium blue) [1] [I.U. per ml] | concentration that can be detected [2] [ppb] | concentration detected in a milk sample ([3]; as little as 70 minutes, test organism more than 10^7 CFU per ml) [IU/ml] | concentration that can be detected ([3]; test type B, test duration of 70 minutes, milk) [I.U. per ml] | concentration detected in a milk sample ([3]; test unit of 0.3 ml agar solution in upright test tube of internal diameter 9 mm) [lU/ml] | concentration that can be detected ([4]; test duration of 80 minutes) [ppb] | concentration that can be detected ([4]; test duration of 90 minutes) [ppb]
CC1(C)S[C@@H]2[C@H](NC(=O)Cc3ccccc3)C(=O)N2[C@H]1C(=O)O [penicillin G] | ≥ 0.003 | ≥ 4 | 0.003 | 0.003 | 0.003 | 3 | 3
Nc1ccc(S(=O)(=O)Nc2ncccn2)cc1 [sulphadiazine] |  |  |  |  |  |  | 100
